Results from patent US6706663B2, “Herbicidal 3-heterocyclic substituted benzisothiazole and benzisoxazole compounds” (Wyeth, priority 2000, dated 2004).

Tests used:
[1] = system: ABUTH (Abutilon theophrasti); assay: Preemergence herbicidal evaluation; format: in vivo, Medic.; settings: preemergence, rated 4-5 weeks after treatment
ZEAMX (Corn, Field) [2] = assay: Preemergence herbicidal evaluation; format: in vivo, Zea mays, L.; settings: preemergence, rated 4-5 weeks after treatment
[3] = system: AMBEL (Ambrosia artemisifolia); assay: Preemergence herbicidal evaluation; format: in vivo, L.; settings: preemergence, rated 4-5 weeks after treatment
Method in brief: (§1)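 Seeds mixed with potting soil were planted atop about one inch of soil, then sprayed with test compound in aqueous acetone. Cups were kept in the greenhouse and rated visually 4–5 weeks after treatment on a 0–9 scale against untreated control.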

[4] = system: CHEAL (Chenopodium album); assay: Preemergence herbicidal evaluation; format: in vivo, L.; settings: preemergence, rated 4-5 weeks after treatment
Method in brief: as §1

ORYSAT (Rice, Tebonnet) [5] = assay: Preemergence herbicidal evaluation; format: in vivo, Oryza sativa, (L.) Tebonnet; settings: preemergence, rated 4-5 weeks after treatment
IPOSS (Ipomoea Spp.) [6] = assay: Preemergence herbicidal evaluation; format: in vivo; settings: rated 4-5 weeks after treatment
From the text: (§2) Results of herbicide evaluation are expressed on a rating scale (0-9). The scale is based upon a visual observation of plant stand, vigor, malformation, size, chlorosis and overall plant appearance as compared with a control.
The preemergence herbicidal activity of the test compounds of the present invention is exemplified by the following tests in which the seeds of a variety of monocotyledonous and dicotyledonous plants are separately mixed with potting soil and planted on top of approximately one inch of soil in separate pint cups. After planting, the cups are sprayed with the selected aqueous acetone solution containing test compound in sufficient quantity to provide the equivalent of about […] per hectare of test compound per cup. The treated cups are then placed on greenhouse benches, watered and cared for in accordance with conventional greenhouse procedures. From four to five weeks after treatment, the tests are terminated and each cup is examined and rated according to the rating system provided in Example 87. The plant species used and the compounds evaluated are the same as those shown in Example 87.

[7] = system: ECHCG (Echinochloa crus-galli); assay: Preemergence herbicidal evaluation; format: in vivo, (L.) Beau; settings: preemergence, rated 4-5 weeks after treatment
Method in brief: as §1

SETVI (Setaria viridis) [8] = assay: Preemergence herbicidal evaluation; format: in vivo, (L.) Beau; settings: preemergence, rated 4-5 weeks after treatment
Method in brief: as §1

[9] = system: TRZAWR (Wheat, Winter, cv Riband); assay: Preemergence herbicidal evaluation; format: in vivo, Triticum aestivum; settings: preemergence, rated 4-5 weeks after treatment
Method in brief: as §1

[10] = system: GLXMAW (Soybean, Williams); assay: Preemergence herbicidal evaluation; format: in vivo, Glycine max, (L.) Merr. cv Williams; settings: preemergence, rated 4-5 weeks after treatment
GALAP (Galium aparine) [11] = assay: Preemergence herbicidal evaluation; format: in vivo; settings: preemergence, rated 4-5 weeks after treatment
Method in brief: as §1

[12] = system: ABUTH (Abutilon theophrasti); assay: Postemergence herbicidal evaluation; format: in vivo, Medic.; settings: postemergence
Method in brief: (§3)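 Seedlings grown for about two weeks were sprayed postemergence and then kept under standard greenhouse care. Injury was rated visually 4–5 weeks after treatment on a 0–9 scale against untreated controls, and ratings from repeat tests were averaged.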

GLXMA (Soybean) = assay: Postemergence herbicidal evaluation; format: in vivo, Glycine max, (L.) Merr.; settings: postemergence
Experimental: (§4) In the tests, seedling plants are grown in jiffy flats for about two weeks. The test compounds are dispersed in 50/50 acetone/water mixtures containing 0.5% TWEEN® 20, a polyoxyethylene sorbitan monolaurate surfactant of Atlas Chemical Industries, in sufficient quantities to provide the equivalent of about 0.0040 kg to 1.000 kg per hectare of active compound when applied to the plants through a spray nozzle operating at 40 psi for a predetermined time. After spraying, the plants are placed on greenhouse benches and are cared for in accordance with conventional greenhouse procedures. From four to five weeks after treatment, the seedling plants are examined and rated according to the rating system set forth below. Where more than one test is involved for a given compound, the data are averaged.
as §2

SETVI (Setaria viridis) [13] = assay: Postemergence herbicidal evaluation; format: in vivo, (L.) Beau; settings: postemergence
Method in brief: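 Seedlings about two weeks old were sprayed with compound in 50/50 acetone/water plus 0.5% TWEEN 20, at the equivalent of about 0.0040 to 1.000 kg/ha. Plants were kept in a greenhouse and visually rated 0-9 against a control four to five weeks after treatment. Repeat tests were averaged.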

[14] = system: IPOHE (Ipomoea hederacea); assay: Postemergence herbicidal evaluation; format: in vivo, (L.) Jacq.; settings: postemergence
Method in brief: as §3

[15] = system: AMBEL (Ambrosia artemisifolia); assay: Postemergence herbicidal evaluation; format: in vivo, L.; settings: postemergence
Method in brief: as §3

[16] = system: CHEAL (Chenopodium album); assay: Postemergence herbicidal evaluation; format: in vivo, L.; settings: postemergence
Method in brief: as §3

ORYSAT (Rice, Tebonnet) [17] = assay: Postemergence herbicidal evaluation; format: in vivo, Oryza sativa, (L.) Tebonnet; settings: postemergence, rate 0.3000 kg/ha
Method in brief: as §3

[18] = system: ECHCG (Echinochloa crus-galli); assay: Postemergence herbicidal evaluation; format: in vivo, (L.) Beau; settings: postemergence
Method in brief: as §3

[19] = system: TRZAWR (Wheat, Winter, cv Riband); assay: Postemergence herbicidal evaluation; format: in vivo, Triticum aestivum; settings: postemergence, rate 0.3000 kg/ha
Method in brief: as §3

[20] = system: GLXMAW (Soybean, Williams); assay: Postemergence herbicidal evaluation; format: in vivo, Glycine max, (L.) Merr. cv Williams; settings: postemergence, rate 0.3000 kg/ha
Method in brief: as §3

IPOSS (Ipomoea Spp.) [21] = assay: Postemergence herbicidal evaluation; format: in vivo; settings: rate 0.3000 kg/ha
Experimental: as §4, §2

ZEAMX (Corn, Field) [22] = assay: Postemergence herbicidal evaluation; format: in vivo, Zea mays, L.; settings: postemergence
Method in brief: as §3

GALAP (Galium aparine) [23] = assay: Postemergence herbicidal evaluation; format: in vivo; settings: postemergence, rate 0.3000 kg/ha
Method in brief: as §3

## Cn1c(C(F)(F)F)cc(=O)n(-c2ccc3snc(C4(O)N=C(c5ccccc5)NC4=O)c3c2)c1=O (stereo not shown) [Compound 94, 3-[3-(4-hydroxy-5-oxo-2-phenyl-2-imidazolin-4-yl)-1,2-benzisothiazol-5-yl]-1-methyl-6-(trifluoromethyl)uracil]
[1]; rate 1.0000 kg/ha
  Preemergence herbicidal rating ABUTH: 7.0
ZEAMX (Corn, Field) [2]; rate 1.0000 kg/ha
  Preemergence herbicidal rating ZEAMX: 3.0
[3]; rate 1.0000 kg/ha
  Preemergence herbicidal rating AMBEL: 5.0
[4]; rate 1.0000 kg/ha
  Preemergence herbicidal rating CHEAL: 8.0
ORYSAT (Rice, Tebonnet) [5]; rate 1.0000 kg/ha
  Preemergence herbicidal rating ORYSAT: 6.0
IPOSS (Ipomoea Spp.) [6]; rate 1.0000 kg/ha
  Preemergence herbicidal rating IPOSS: 7.0
[7]; rate 1.0000 kg/ha
  Preemergence herbicidal rating ECHCG: 2.0
SETVI (Setaria viridis) [8]; rate 1.0000 kg/ha
  Preemergence herbicidal rating SETVI: 5.0
[9]; rate 1.0000 kg/ha
  Preemergence herbicidal rating TRZAWR: 5.0
[10]; rate 1.0000 kg/ha
  Preemergence herbicidal rating GLXMAW: 5.0
GALAP (Galium aparine) [11]; rate 1.0000 kg/ha
  Preemergence herbicidal rating GALAP: 8.0

## Cn1c(C(F)(F)F)cc(=O)n(-c2ccc3snc(C4(O)C(=O)NC(=N)C4(C)C)c3c2)c1=O (stereo not shown) [Compound 96]
[1]; rate 0.3000 kg/ha
  Preemergence herbicidal rating ABUTH: 6.0
ZEAMX (Corn, Field) [2]; rate 0.3000 kg/ha
  Preemergence herbicidal rating ZEAMX: 0.0
[12]; rate 0.0320 kg/ha
  ABUTH herbicidal rating: 3.0
[12]; rate 0.0620 kg/ha
  ABUTH herbicidal rating: 4.0
[12]; rate 0.3000 kg/ha
  ABUTH herbicidal rating: 9.0
[3]; rate 0.3000 kg/ha
  Preemergence herbicidal rating AMBEL: 0.0
[4]; rate 0.3000 kg/ha
  Preemergence herbicidal rating CHEAL: 7.0
GLXMA (Soybean); rate 0.0320 kg/ha
  GLXMA herbicidal rating: 5.5
GLXMA (Soybean); rate 0.0620 kg/ha
  GLXMA herbicidal rating: 6.0
SETVI (Setaria viridis) [13]; rate 0.0320 kg/ha
  SETVI herbicidal rating: 2.0
SETVI (Setaria viridis) [13]; rate 0.0620 kg/ha
  SETVI herbicidal rating: 2.0
SETVI (Setaria viridis) [13]; rate 0.3000 kg/ha
  SETVI herbicidal rating: 4.0
ORYSAT (Rice, Tebonnet) [5]; rate 0.3000 kg/ha
  Preemergence herbicidal rating ORYSAT: 0.0
[14]; rate 0.0320 kg/ha
  IPOHE herbicidal rating: 3.0
[14]; rate 0.0620 kg/ha
  IPOHE herbicidal rating: 6.0
[15]; rate 0.0320 kg/ha
  AMBEL herbicidal rating: 4.0
[15]; rate 0.0620 kg/ha
  AMBEL herbicidal rating: 5.0
[15]; rate 0.3000 kg/ha
  AMBEL herbicidal rating: 6.0
[16]; rate 0.0320 kg/ha
  CHEAL herbicidal rating: 3.0
[16]; rate 0.0620 kg/ha
  CHEAL herbicidal rating: 4.0
[16]; rate 0.3000 kg/ha
  CHEAL herbicidal rating: 9.0
ORYSAT (Rice, Tebonnet) [17]
  ORYSAT herbicidal rating: 0.0
[18]; rate 0.0320 kg/ha
  ECHCG herbicidal rating: 1.0
[18]; rate 0.0620 kg/ha
  ECHCG herbicidal rating: 2.0
[18]; rate 0.3000 kg/ha
  ECHCG herbicidal rating: 0.0
IPOSS (Ipomoea Spp.) [6]; rate 0.3000 kg/ha
  Preemergence herbicidal rating IPOSS: 4.0
[19]
  TRZAWR herbicidal rating: 0.0
[7]; rate 0.3000 kg/ha
  Preemergence herbicidal rating ECHCG: 0.0
SETVI (Setaria viridis) [8]; rate 0.3000 kg/ha
  Preemergence herbicidal rating SETVI: 0.0
[20]
  GLXMAW herbicidal rating: 5.0
[9]; rate 0.3000 kg/ha
  Preemergence herbicidal rating TRZAWR: 0.0
[10]; rate 0.3000 kg/ha
  Preemergence herbicidal rating GLXMAW: 0.0
IPOSS (Ipomoea Spp.) [21]
  IPOSS herbicidal rating: 3.0
GALAP (Galium aparine) [11]; rate 0.3000 kg/ha
  Preemergence herbicidal rating GALAP: 6.0
ZEAMX (Corn, Field) [22]; rate 0.0320 kg/ha
  ZEAMX herbicidal rating: 3.0
ZEAMX (Corn, Field) [22]; rate 0.0620 kg/ha
  ZEAMX herbicidal rating: 3.0
ZEAMX (Corn, Field) [22]; rate 0.3000 kg/ha
  ZEAMX herbicidal rating: 2.0
GALAP (Galium aparine) [23]
  GALAP herbicidal rating: 0.0
